# Laboratory results reported in patent US20260374773A1, “MULTI-CYCLIC IRAK AND FLT3 INHIBITING COMPOUNDS AND USES THEREOF” (CHILDREN'S HOSPITAL MEDICAL CENTER, priority 2022, published 2026).
# System: MOLM14 (D835Y) cells
# Assay: Combination drug screening with venetoclax, Cell Titer Glo, MOLM14 (D835Y)
# Type: cell-based
# Design: key: relative excess HSA score; more negative = greater synergy
# Settings: compound 0-0.1 μM, venetoclax 0-2 μM, 10 × 10, 48 h, negative = synergy
# Method: Combination drug therapy has the potential to produce enhanced effects with lower side effects not obtained using either agent alone, or beyond the additive effect of the different concentrations of the two different agents. To determine whether enhanced effects are observed in different drug combinations, combination drug screening was performed as previously described (Mathews-Griner, L. A. et al., Proc. Nat. Acad. Sci., 2014, 111:2349-2354; Lin, G. L. et al., Sci. Trans. Med., 2019, 11: eaaw0064). Briefly, 10 nL of compounds were acoustically dispensed into 1536-well white polystyrene tissue culture-treated plates with an Echo 550 acoustic liquid handler (Labcyte). Cells were then added to compound-containing plates at a density of 500-cells/well in 5 μL of medium. A 10-point custom concentration range was used for all listed drugs in a 10×10 matrix. Plates were incubated for 48 hours at standard incubator conditions covered by a stainless steel gasketed lid to prevent evaporation. 48 hours post compound addition, 3 μL of Cell Titer Glo (Promega) were added to each well and plates were incubated at room temperature for 15 minutes with the stainless-steel lid in place. Luminescence readings were taken using a Viewlux imager (PerkinElmer) with a 2 second exposure time per plate.
# Each compound was studied in combination with venetoclax at two concentration ranges of compound and venetoclax, respectively (for a total of 4 combination dose-response curves). The dose combinations that yielded the optimal synergy score, measured as excess HSA, which are reported in Tables 23 and 24 for the FLT3 mutant cell line MOLM14 (D835Y) and the FLT3 WT cell line THP1, respectively.
# Table 23 provides combination outcomes for representative compounds with venetoclax in the Cell Titer Glo assay in MOLM14 (D835Y) cells (a FLT3 mutant cell line) at 48 hours. The table provides relative excess HSA values for compounds of the disclosure used in combination with venetoclax compared to gilteritinib hemifumarate used in combination with venetoclax. A negative excess HSA score illustrates that the drug combination is better than either drug alone, wherein greater synergy is observed at larger negative values of the excess HSA score.
# Excess HSA is a measure of synergy vs. additivity or antagonism, wherein a negative excess HSA value is indicative of synergy. More information on excess HSA scores can be found in Vlot, Anna H. C. et al., Drug Discovery Today, 2019, 24(12):2286-2298. […] However, different methodologies may yield different numerical scores, and different definitions of what constitutes a deviation from mere additivity vs true drug synergy. The large negative excess HSA values provided in Tables 23 and 24 illustrate that multiple members of this structural class synergize with venetoclax. The degree to which combination therapy has to potential to produce enhanced effects with lower side effects not obtained using either agent alone, or beyond the additive effect of the different concentrations of the two different agents depends on the nature of the drugs used in the combination, and the specific doses/concentrations at which they are ultimately used in the therapeutic regimen. A negative excess HSA score illustrates that the drug combination is better than either drug alone (at the concentrations being studied). […] However, the utility in certain drug combinations vs. others should not be distinguished based on cutoffs between excess HSA scores, because the score itself is only a relative indicator that is completely dependent on experimental design and is not an absolute number. Furthermore, the concept of what constitutes clinically meaningful drug synergy is something that is still being debated, not only between pharmacologists and physicians, but amongst pharmacologists themselves. […]
row,SMILES,Excess HSA
1,"COc1cn2ncc(-c3nc(N[C@H]4CNC[C@@H]4F)c(F)cc3F)c2nc1C1CC1 [Compound 24, 6-(5-cyclopropyl-6-methoxypyrazolo[1,5-a]pyrimidin-3-yl)-3,5-difluoro-N-((3S,4S)-4-fluoropyrrolidin-3-yl)pyridin-2-amine]",−1472

# Same assay, conditions: compound 0-0.1 μM, venetoclax 0-20 μM, 10 × 10, 48 h, negative = synergy
row,SMILES,Excess HSA
1,"COc1cn2ncc(-c3nc(N[C@H]4CNCC[C@@H]4F)c(F)cc3F)c2nc1C1CC1 [Compound 22, 6-(5-cyclopropyl-6-methoxypyrazolo[1,5-a]pyrimidin-3-yl)-3,5-difluoro-N-((3S,4S)-4-fluoropiperidin-3-yl)pyridin-2-amine]",−992.2
2,"COc1cn2ncc(-c3nc(N[C@@H]4CCCNC4)ncc3F)c2nc1C1CC1 [Compound 14a, (R)-4-(5-cyclopropyl-6-methoxypyrazolo[1,5-a]pyrimidin-3-yl)-5-fluoro-N-(piperidin-3-yl)pyrimidin-2-amine]",−559.2
3,"COc1cn2ncc(-c3nc(N[C@H]4CNCC[C@@H]4F)ncc3F)c2nc1C1CC1 [Compound 15a, 4-(5-cyclopropyl-6-methoxypyrazolo[1,5-a]pyrimidin-3-yl)-5-fluoro-N-((3S,4S)-4-fluoropiperidin-3-yl)pyrimidin-2-amine]",−831
4,"COc1cn2ncc(-c3nc(N[C@@H]4CCCNC4)ccc3F)c2nc1C1CC1 [Compound 2, (R)-6-(5-cyclopropyl-6-methoxypyrazolo[1,5-a]pyrimidin-3-yl)-5-fluoro-N-(piperidin-3-yl)pyridin-2-amine]",−1843
5,"COc1cn2ncc(-c3cncc(N[C@H]4CNCC[C@@H]4F)n3)c2nc1C1CC1 [Compound 12a, 6-(5-cyclopropyl-6-methoxypyrazolo[1,5-a]pyrimidin-3-yl)-N-((3S,4S)-4-fluoropiperidin-3-yl)pyrazin-2-amine]",−1697
6,"COc1cn2ncc(-c3nc(N[C@H]4CNCC[C@@H]4F)ncc3F)c2nc1C(C)(C)O [Compound 6a, 2-(3-(5-fluoro-2-(((3S,4S)-4-fluoropiperidin-3-yl)amino)pyrimidin-4-yl)-6-methoxypyrazolo[1,5-a]pyrimidin-5-yl)propan-2-ol]",−1057
7,"COc1cn2ncc(-c3ccnc(N[C@H]4CNCC[C@@H]4F)n3)c2nc1C1CC1 [Compound 7a, 4-(5-cyclopropyl-6-methoxypyrazolo[1,5-a]pyrimidin-3-yl)-N-((3S,4S)-4-fluoropiperidin-3-yl)pyrimidin-2-amine]",−1364

# Same assay, conditions: compound 0-0.2 μM, venetoclax 0-20 μM, 10 × 10, 48 h, negative = synergy
row,SMILES,Excess HSA
1,"COc1cn2ncc(-c3ccnc(N[C@H]4CNCC[C@@H]4F)n3)c2nc1C(C)(C)O [Compound 3a, 2-(3-(2-(((3S,4S)-4-fluoropiperidin-3-yl)amino)pyrimidin-4-yl)-6-methoxypyrazolo[1,5-a]pyrimidin-5-yl)propan-2-ol]",−1621
